Source: US12252524B2, “GIP/GLP1 co-agonist compounds” (Eli Lilly and Company, priority 2018, dated 2025)
Numbered stars: 1 amine (or outer) side, 2 acyl side, 3 side chain; on linkers, the order of the positions; unused ones are H or OH. Square brackets hold non-standard residues; d marks the D form. Side chains are listed from the residue outwards. Peptide text beside a SMILES is read from it. * marks the point of attachment. C20 diacid = O=C(O)CCCCCCCCCCCCCCCCCCC(=O)*; γGlu = O=C(O)[C@H](CCC(=O)[*:2])N[*:1]; αMeL = CC(C)C[C@](C)(N)C(=O)O; AEEA = NCCOCCOCC(=O)O; Aib = CC(C)(N)C(=O)O

Columns and labels:
human Gcg receptor = target: T1, human Gcg receptor (Homo sapiens, UniProt P47871); assay: [125I]-Glucagon binding (SPA), human Gcg receptor; details: read-out: hGLcgR Ki, nM (SEM, n)
T1 construct: expressed in transfected cells; crude membranes
T1 sequence (P47871 26-477): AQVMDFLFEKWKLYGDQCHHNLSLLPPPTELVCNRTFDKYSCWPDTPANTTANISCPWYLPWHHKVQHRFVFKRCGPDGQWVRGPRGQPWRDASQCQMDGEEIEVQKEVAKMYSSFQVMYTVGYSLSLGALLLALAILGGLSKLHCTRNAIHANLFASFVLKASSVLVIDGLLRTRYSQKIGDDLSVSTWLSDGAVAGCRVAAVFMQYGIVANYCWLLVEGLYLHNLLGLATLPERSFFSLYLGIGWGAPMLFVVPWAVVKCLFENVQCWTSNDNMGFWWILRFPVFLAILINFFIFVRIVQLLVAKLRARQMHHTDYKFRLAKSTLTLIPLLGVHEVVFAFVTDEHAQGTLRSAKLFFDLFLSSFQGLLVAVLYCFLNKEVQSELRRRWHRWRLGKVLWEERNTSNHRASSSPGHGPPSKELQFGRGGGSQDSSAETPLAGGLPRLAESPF
Method in brief: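 Crude membranes from cells expressing the receptor, prepared by hypotonic lysis in 50 mM Tris HCl pH 7.5 with protease inhibitors, homogenization and differential centrifugation, were used in a WGA-bead SPA. Binding buffer: 25 mM HEPES pH 7.4, 2.5 mM CaCl2, 1 mM MgCl2, bacitracin, Tween-20.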

human GIP receptor = target: T2, human GIP receptor (Homo sapiens, UniProt P48546); assay: [125I]-GIP binding (SPA), human GIP receptor; details: read-out: hGIPR Ki, nM (SEM, n)
T2 construct: expressed in transfected cells; crude membranes
T2 sequence (P48546 22-466): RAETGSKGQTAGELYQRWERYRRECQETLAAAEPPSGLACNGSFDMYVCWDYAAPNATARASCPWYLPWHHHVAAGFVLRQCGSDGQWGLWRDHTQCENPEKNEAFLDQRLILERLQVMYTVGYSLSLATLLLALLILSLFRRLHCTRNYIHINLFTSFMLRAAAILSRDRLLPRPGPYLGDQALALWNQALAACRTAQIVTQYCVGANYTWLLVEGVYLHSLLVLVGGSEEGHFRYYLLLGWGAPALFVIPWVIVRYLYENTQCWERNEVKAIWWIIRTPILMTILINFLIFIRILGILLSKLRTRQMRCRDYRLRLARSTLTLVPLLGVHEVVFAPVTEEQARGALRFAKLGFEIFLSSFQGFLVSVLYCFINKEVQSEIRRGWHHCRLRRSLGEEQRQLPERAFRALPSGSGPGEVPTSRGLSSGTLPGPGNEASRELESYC

human GLP-1R = human GLP-1R (Homo sapiens, UniProt P43220); assay: [125I]-GLP-1 binding (SPA), human GLP-1 receptor; design: expressed in transfected cells; crude membranes; details: read-out: hGLP1R Ki, (nM) (SEM, n)
Chain of human GLP-1R (P43220 24-463): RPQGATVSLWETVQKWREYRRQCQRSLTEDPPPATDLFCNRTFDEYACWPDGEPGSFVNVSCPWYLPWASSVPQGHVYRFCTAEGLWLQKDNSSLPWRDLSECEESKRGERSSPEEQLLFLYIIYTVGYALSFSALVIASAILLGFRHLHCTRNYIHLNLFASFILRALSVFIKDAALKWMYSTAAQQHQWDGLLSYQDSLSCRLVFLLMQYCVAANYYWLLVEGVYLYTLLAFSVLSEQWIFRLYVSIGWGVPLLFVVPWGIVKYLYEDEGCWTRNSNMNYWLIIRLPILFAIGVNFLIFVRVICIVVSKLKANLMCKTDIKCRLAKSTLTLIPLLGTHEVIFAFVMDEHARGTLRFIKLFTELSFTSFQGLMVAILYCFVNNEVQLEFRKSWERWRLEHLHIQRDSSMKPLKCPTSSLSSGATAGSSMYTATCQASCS
Method in brief: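 Ki values are geometric means with SEM over independent replicates on different days, derived from IC50s fitted by four-parameter nonlinear regression. The assay used crude cell membranes in HEPES buffer, pH 7.4, containing CaCl2, MgCl2, bacitracin and TWEEN-20.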

[1] = target: T3, gastric inhibitory peptide receptor (GIPR) (Homo sapiens, UniProt P48546); assay: cAMP pharmacological functional assay in presence of casein, hGIPR; assay type: cell-based; details: HEK293 cells expressing hGIPR, 0.1% Casein, geometric mean; read-out: hGIPR cAMP Rel EC50 nM (SEM, n)
T3 sequence (P48546 22-466): T2 sequence (P48546 22-466)

[2] = target: human GLP-1 receptor (GLP-1R) (Homo sapiens, UniProt P43220); assay: cAMP pharmacological functional assay in presence of casein, hGLP-1R; assay type: cell-based; details: HEK293 cells expressing hGLP-1R, 0.1% Casein, geometric mean; read-out: hGLP1R cAMP Rel EC50 nM (SEM, n)
Chain of human GLP-1 receptor (GLP-1R) (P43220 24-463): as above

Row | Compound | Ki (human Gcg receptor) | Ki (human GIP receptor) | Ki (human GLP-1R) | EC50 [1] | EC50 [2]
1 | CC[C@H](C)[C@H](NC(=O)[C@H](CCCCN)NC(=O)[C@H](CC(=O)O)NC(=O)[C@H](CC(C)C)NC(=O)[C@H](CC(C)C)NC(=O)[C@@H](NC(=O)[C@H](CO)NC(=O)[C@H](Cc1ccc(O)cc1)NC(=O)[C@H](CC(=O)O)NC(=O)[C@H](CO)NC(=O)[C@@H](NC(=O)[C@H](Cc1ccccc1)NC(=O)[C@@H](NC(=O)CNC(=O)[C@H](CCC(=O)O)NC(=O)C(C)(C)NC(=O)[C@@H](N)Cc1ccc(O)cc1)[C@@H](C)O)[C@@H](C)O)[C@@H](C)CC)C(=O)N[C@@H](C)C(=O)N[C@@H](CCC(N)=O)C(=O)NC(C)(C)C(=O)N[C@@H](C)C(=O)N[C@@H](Cc1ccccc1)C(=O)N[C@H](C(=O)N[C@@H](CCC(=O)O)C(=O)N[C@@H](Cc1ccc(O)cc1)C(=O)N[C@@H](CC(C)C)C(=O)N[C@H](C(=O)N[C@@H](CCC(=O)O)C(=O)NCC(=O)NCC(=O)N1CCC[C@H]1C(=O)N[C@@H](CO)C(=O)N[C@@H](CO)C(=O)NCC(=O)N[C@@H](C)C(=O)N1CCC[C@H]1C(=O)N1CCC[C@H]1C(=O)N1CCC[C@H]1C(=O)N[C@@H](CCCCNC(=O)COCCOCCNC(=O)COCCOCCNC(=O)CC[C@H](NC(=O)CCCCCCCCCCCCCCCCCCC(=O)O)C(=O)O)C(N)=O)[C@@H](C)CC)[C@@H](C)CC [Example 48] (H-Y[Aib]EGTFTSDYSILLDKIAQ[Aib]AFIEYLIEGGPSSGAPPPK([AEEA-AEEA-γGlu-C20 diacid])-NH2; N-terminus assumed) | 111 nM | 0.074 nM | 15.7 nM | 0.168 nM | 0.691 nM
2 | CC[C@H](C)[C@H](NC(=O)[C@H](CCCCN)NC(=O)[C@H](CC(=O)O)NC(=O)[C@H](CC(C)C)NC(=O)[C@H](CC(C)C)NC(=O)[C@@H](NC(=O)[C@H](CO)NC(=O)[C@H](Cc1ccc(O)cc1)NC(=O)[C@H](CC(=O)O)NC(=O)[C@H](CO)NC(=O)[C@@H](NC(=O)[C@H](Cc1ccccc1)NC(=O)[C@@H](NC(=O)CNC(=O)[C@H](CCC(=O)O)NC(=O)C(C)(C)NC(=O)[C@@H](N)Cc1ccc(O)cc1)[C@@H](C)O)[C@@H](C)O)[C@@H](C)CC)C(=O)N[C@@H](C)C(=O)N[C@@H](CCC(N)=O)C(=O)NC(C)(C)C(=O)N[C@@H](C)C(=O)N[C@@H](Cc1ccccc1)C(=O)N[C@H](C(=O)N[C@@H](CCC(=O)O)C(=O)N[C@@H](Cc1ccc(O)cc1)C(=O)N[C@@H](CC(C)C)C(=O)N[C@H](C(=O)N[C@@H](CCC(=O)O)C(=O)NCC(=O)NCC(=O)N1CCC[C@H]1C(=O)N[C@@H](CO)C(=O)N[C@@H](CO)C(=O)NCC(=O)N[C@@H](C)C(=O)N1CCC[C@H]1C(=O)N1CCC[C@H]1C(=O)N1CCC[C@H]1C(=O)N[C@@H](CO)C(=O)N[C@@H](CCCCNC(=O)COCCOCCNC(=O)COCCOCCNC(=O)CC[C@H](NC(=O)CCCCCCCCCCCCCCCCCCC(=O)O)C(=O)O)C(N)=O)[C@@H](C)CC)[C@@H](C)CC [Example 49] (H-Y[Aib]EGTFTSDYSILLDKIAQ[Aib]AFIEYLIEGGPSSGAPPPSK([AEEA-AEEA-γGlu-C20 diacid])-NH2; N-terminus assumed) | 236 nM | 0.087 nM | 12.3 nM | 0.0868 nM | 0.597 nM
3 | CC[C@H](C)[C@H](NC(=O)[C@H](CC(C)C)NC(=O)[C@H](Cc1ccc(O)cc1)NC(=O)[C@H](CCC(=O)O)NC(=O)[C@@H](NC(=O)[C@H](Cc1ccccc1)NC(=O)[C@H](C)NC(=O)C(C)(C)NC(=O)[C@H](CCC(N)=O)NC(=O)[C@H](C)NC(=O)[C@H](CCCCNC(=O)COCCOCCNC(=O)COCCOCCNC(=O)CC[C@H](NC(=O)CCCCCCCCCCCCCCCCCCC(=O)O)C(=O)O)NC(=O)[C@H](CCCCN)NC(=O)[C@H](CC(=O)O)NC(=O)[C@H](CC(C)C)NC(=O)[C@H](CC(C)C)NC(=O)[C@@H](NC(=O)[C@H](CO)NC(=O)[C@H](Cc1ccc(O)cc1)NC(=O)[C@H](CC(=O)O)NC(=O)[C@H](CO)NC(=O)[C@@H](NC(=O)[C@H](Cc1ccccc1)NC(=O)[C@@H](NC(=O)CNC(=O)[C@H](CCC(=O)O)NC(=O)C(C)(C)NC(=O)[C@@H](N)Cc1ccc(O)cc1)[C@@H](C)O)[C@@H](C)O)[C@@H](C)CC)[C@@H](C)CC)C(=O)N[C@@H](CCC(=O)O)C(=O)NCC(=O)NCC(=O)N1CCC[C@H]1C(=O)N[C@@H](CO)C(=O)N[C@@H](CO)C(=O)NCC(N)=O [Example 50] (H-Y[Aib]EGTFTSDYSILLDKK([AEEA-AEEA-γGlu-C20 diacid])AQ[Aib]AFIEYLIEGGPSSG-NH2) | 220 nM | 0.0568 nM | 4.71 nM | 0.0794 nM | 0.0961 nM
4 | CC[C@H](C)[C@H](NC(=O)[C@H](CC(C)C)NC(=O)[C@H](Cc1ccc(O)cc1)NC(=O)[C@H](CCC(=O)O)NC(=O)[C@@H](NC(=O)[C@H](Cc1ccccc1)NC(=O)[C@H](C)NC(=O)C(C)(C)NC(=O)[C@H](CCC(N)=O)NC(=O)[C@H](C)NC(=O)[C@H](CCCCNC(=O)COCCOCCNC(=O)COCCOCCNC(=O)CC[C@H](NC(=O)CCCCCCCCCCCCCCCCCCC(=O)O)C(=O)O)NC(=O)[C@H](CCCCN)NC(=O)[C@H](CC(=O)O)NC(=O)[C@H](CC(C)C)NC(=O)[C@H](CC(C)C)NC(=O)[C@@H](NC(=O)[C@H](CO)NC(=O)[C@H](Cc1ccc(O)cc1)NC(=O)[C@H](CC(=O)O)NC(=O)[C@H](CO)NC(=O)[C@@H](NC(=O)[C@H](Cc1ccccc1)NC(=O)[C@@H](NC(=O)CNC(=O)[C@H](CCC(=O)O)NC(=O)C(C)(C)NC(=O)[C@@H](N)Cc1ccc(O)cc1)[C@@H](C)O)[C@@H](C)O)[C@@H](C)CC)[C@@H](C)CC)C(=O)N[C@@H](CCC(=O)O)C(=O)NCC(=O)NCC(N)=O [Example 51] (H-Y[Aib]EGTFTSDYSILLDKK([AEEA-AEEA-γGlu-C20 diacid])AQ[Aib]AFIEYLIEGG-NH2) | 195 nM | 0.062 nM | 5.62 nM | 0.096 nM | 0.153 nM
5 | CC[C@H](C)[C@H](NC(=O)[C@H](CC(C)C)NC(=O)[C@H](Cc1ccc(O)cc1)NC(=O)[C@H](CCC(=O)O)NC(=O)[C@@H](NC(=O)[C@H](Cc1ccccc1)NC(=O)[C@H](C)NC(=O)C(C)(C)NC(=O)[C@H](CCC(N)=O)NC(=O)[C@H](C)NC(=O)[C@H](CCCCNC(=O)COCCOCCNC(=O)COCCOCCNC(=O)CC[C@H](NC(=O)CCCCCCCCCCCCCCCCCCC(=O)O)C(=O)O)NC(=O)[C@H](CO)NC(=O)[C@H](CC(=O)O)NC(=O)[C@H](CC(C)C)NC(=O)[C@](C)(CC(C)C)NC(=O)[C@@H](NC(=O)[C@H](CO)NC(=O)[C@H](Cc1ccc(O)cc1)NC(=O)[C@H](CC(=O)O)NC(=O)[C@H](CO)NC(=O)[C@@H](NC(=O)[C@H](Cc1ccccc1)NC(=O)[C@@H](NC(=O)CNC(=O)[C@H](CCC(=O)O)NC(=O)C(C)(C)NC(=O)[C@@H](N)Cc1ccc(O)cc1)[C@@H](C)O)[C@@H](C)O)[C@@H](C)CC)[C@@H](C)CC)C(=O)N[C@@H](CCC(=O)O)C(=O)NCC(=O)NCC(=O)N1CCC[C@H]1C(=O)N[C@@H](CO)C(=O)N[C@@H](CO)C(=O)NCC(=O)N[C@@H](C)C(=O)N1CCC[C@H]1C(=O)N1CCC[C@H]1C(=O)N1CCC[C@H]1C(=O)N[C@@H](CO)C(N)=O [Example 52] (H-Y[Aib]EGTFTSDYSI[αMeL]LDSK([AEEA-AEEA-γGlu-C20 diacid])AQ[Aib]AFIEYLIEGGPSSGAPPPS-NH2) | > 1100 nM | 0.0342 nM | 5.81 nM | 0.0997 nM | 0.132 nM
